Consider four molecules from US20180235942A1 (priority 2015, published 2018).

Molecules are shown by their SMILES. Where two headings read alike, the source gives them in different places.

In data set [1] the test system is healthy elderly male and female subjects. More on the design: species or system human. To be noted: in vivo, po.
Data set [2] deals with patients with a history of drug abuse. The following applies: cited from earlier work.
Another data set deals with insomnia. The following applies: three-month efficacy study; cited from earlier work.
Data set [3] deals with healthy, male and female subjects. In words: Driving performance study, real driving on the road after evening or middle-of-the-night dosing. The data set is classed as in vivo, human. To be noted: for effect on driving: gaboxadol 15 mg; for effect on memory test, body sway, DSST or critical tracking: in vivo. The text has this: The study participants included healthy, male and female subjects between 21 and 45 years of age, with a valid drivers license for at least 3 years.
Following a cognitive and psychomotor test battery, the driving test started at 9 am and lasted for one hour.

A short description of the next data set: clinical. To be noted: both, human, in vivo.
Data set [4] has as its system healthy adults subjected to a 5-hour sleep restriction. In words: Daytime performance after 5-hour sleep restriction (MSLT, SWS, KSS). Type of data set: in vivo, human. The method, then:
The study included a 2-night single-blind placebo run-in period, a 4-night double-blind treatment period during which sleep was restricted to 5 hours and a 2-night single-blind placebo run-out period. The study included healthy male and female volunteers 18 to <55 years of age.
The primary endpoints included observations based on the Multiple Sleep Latency Test (MSLT) and Slow Wave Sleep (SWS) assessment.

For data set [5], the system named is normal healthy adult subjects. In words: Intravenous and oral tolerability and safety in healthy adult subjects. The data set is classed as in vivo, human. The source says:
There was a washout of 4 days between each treatment period.
The study included healthy, male and female subjects between 18 and 45 years of age within 30% of ideal weight. The subjects in Part 1 of the study could be of either gender, but within Part 2 of the study there had to be at least 4 subjects of each gender.

Setting [6] is: middle-of-the-night administration, zolpidem 10 mg.

On to `CCN(CC)CCN1C(=O)CN=C(c2ccccc2F)c2cc(Cl)ccc21` [Flurazepam], for which the “residual effect on Choice Reaction Time and Critical Flicker Fusion” value in data set [1] is reported as “showed significant effect”.
As usually defined, the bioavailability is dose-corrected exposure relative to a reference, in per cent. For `Oc1noc2c1CCNC2` [gaboxadol, 4,5,6,7-tetrahydroisoxazolo [5,4-c]pyridine-3-ol], the psychiatric adverse events result in data set [2] is “steep increase in psychiatric adverse events”. Also, the “effects in sleep onset and sleep maintenance” value in the data set with insomnia is listed as “failed to show significant effects”. Moreover, the tolerability result in data set [3] (evening and middle-of-the-night dose) is recorded as “well tolerated”. Besides, the “effect on driving compared with 0.05% blood alcohol concentration” value in data set [3] (evening dose, 15 mg) is listed as “less than the effect observed at a 0.05% blood alcohol concentration”. For the same molecule, the effect on driving result in data set [3] (evening dose, zopiclone 7.5 mg) was “statistically significant effect”. For the same molecule, the “most frequent adverse events” value in data set [3] (evening treatment) is “headache and somnolence”. The “effect on memory test, body sway, DSST or critical tracking” value in data set [3] is “no effect”. Moreover, the effect on driving entry in data set [3] (setting [6]) is listed as “clinically relevant impairing effect”. In addition, the “most frequent adverse events” value in data set [3] (middle-of-the-night treatment) was “dizziness, nausea and somnolence”. In addition, the bioavailability in “clinical” came out at 92%. Moreover, the “daytime sleepiness versus placebo (MSLT)” value in data set [4] (15 mg, Sleep Restriction period, p=0.047, 1 sided) is recorded as “significantly less daytime sleepiness”. Also, the “MSLT, longer than placebo on average” value in data set [4] (15 mg, last two Sleep Restriction days) was found to be 2.01 min. Also, in data set [4] (Sleep Restriction period, p<0.001, 1 sided), the “slow wave sleep (SWS) versus placebo” value is recorded as “significantly more SWS”. For the same molecule, in data set [4] (in vivo), the “biophysiological measures of stress (heart rate variability, cortisol levels, catecholamine levels, body temperature) versus placebo” value was “no differences” and the “daytime performance, neurocognitive battery effect sizes” value is given as “no strong evidence that gaboxadol improves daytime performance”. For the same molecule, in data set [4] (last two Sleep Restriction days, p=0.058, 1 sided, LDA model), the “Karolinska Sleepiness Score (KSS), less than placebo on average” value was found to be 0.68. The “SWS, longer than placebo on average” value in data set [4] (last two Sleep Restriction nights) is 20.53 min. Moreover, in data set [5] (both parts of the study), the “most common clinical adverse experiences” value is “somnolence and dizziness”; the serious adverse experiences result is “no serious adverse experiences reported”. Moreover, the tolerability entry in data set [5] (single intravenous doses of 5 and 10 mg, single oral doses from 2.5 to 20 mg) is given as “generally well tolerated”. Besides, in data set [1], the “residual effect on Choice Reaction Time and Critical Flicker Fusion” value is “did not show residual effect”; the “residual effects on other measurements (MSLT, DSST, Tracking, Memory tests, Body Sway, Leeds Sleep Evaluation Questionnaire)” value is given as “did not show any signs of residual effects”. Further, the “Renal clearance (CLR)” value (human, in vivo) is given as “greater than glomerular filtration rate”. Moreover, for the setting “human, in vivo, iv”, the “steady-state volume of distribution (Vss)” value is listed as “moderate” and the “systemic clearance (CL)” value was “moderate”. Under “oral administration”, the “AUC0-inf and Cmax versus dose” value is listed as “increased with increasing dose”. In addition, the “AUC0-inf and Cmax versus dose” value (single intravenous doses) was “increased with increasing dose”.
In the case of `Cc1ccc(-c2nc3ccc(C)cn3c2CC(=O)N(C)C)cc1` [zolpidem], the effect on driving entry in data set [3] (setting [6]) was “numerically greater effect”.
Take `CN1CCN(C(=O)OC2c3nccnc3C(=O)N2c2ccc(Cl)cn2)CC1` (stereo not shown) [zopiclone]: the effect on driving entry in data set [3] (evening dose, zopiclone 7.5 mg) is on record as “numerically greater effect”. The “effect on memory test, body sway, DSST or critical tracking” value in data set [3] was “had effect on several of these tests”.
